Source: US9451774B2, “Paddy rice seed treated by herbicidal composition and method for controlling weed” (MITSUI CHEMICALS AGRO, INC., priority 2013, dated 2016)

Tests used:
[1] = system: Scirpus juncoides Roxb.; experiment: Test Example 6: pot test, herbicide-treated seed, growth inhibition; format: in vivo; conditions: 20 days after sowing, dosage a.i. g per 1 kg of seeds: Pyrimisulfan 0.5, Pyriminobac-methyl 1.5, Butachlor 1.25
From the text: (§3) In 100 cm^2 of a pot was filled a paddy field soil, and after paddling, seeds of Echinochloa oryzicola and Scirpus juncoides Roxb. were sown and mixed into the surface layer of the soil. Paddy rice seeds (variety: Nipponbare) sprouted into a pigeon breast shape were dust-coated with a predetermined amount of wettable powder each prepared according to Preparation examples 5, 6 and 9, and were sown onto the surface of the soil or into the soil (depth: 1 cm) at an amount of 10 grains/pot. After the sowing, water was introduced quietly and flooded up to 1 cm. After 20 days from the sowing, a growth inhibition rate was judged according to the above-mentioned judgement criteria.

[2] = system: Echinochloa oryzicola; experiment: as above; format: in vivo; conditions: 20 days after sowing, dosage a.i. g per 1 kg of seeds: Pyrimisulfan 0.5, Pyriminobac-methyl 1.5, Butachlor 1.25
From the text: as §3

[3] = system: Echinochloa oryzicola; experiment: Test Example 7: pot test, seed dust-coated with COMMAND3ME, growth inhibition; format: in vivo; conditions: Surface sowing; 21 days after sowing; dosage 2.5 a.i. g per 1 kg of seeds (as COMMAND3ME)
From the text: In 100 cm^2 of a pot was filled a paddy field soil, and after paddling, seeds of Echinochloa oryzicola was sown and mixed into the surface layer of the soil. Paddy rice seeds (variety: Nipponbare) sprouted into a pigeon breast shape were dust-coated with a predetermined amount of COMMAND3ME™ (clomazone: 31.4%, available from FMC Corporation), and were sown onto the surface of the soil at an amount of 10 grains/pot. After the sowing, water was introduced quietly and flooded up to 1 cm. After 21 days from the sowing, a growth inhibition rate was judged according to the above-mentioned judgement criteria.

[4] = system: Paddy rice (variety: Nipponbare); experiment: Test Example 1: pot test, growth inhibition (chemical damage) of the paddy rice; format: in vivo; conditions: 30 days after sowing, dosage a.i. g per 1 kg of seeds: Pyrazolate 150, Compound (I) 37.5, Thenylchlor 0.63
From the text: (§1) In 100 cm^2 of a pot was filled a paddy field soil, and after paddling, seeds of Monochoria vaginalis and Lindernia procumbens were sown and mixed into the surface layer of the soil. Paddy rice seeds (variety: Nipponbare) sprouted into a pigeon breast shape were dust-coated with a predetermined amount of wettable powder each prepared according to Preparation examples 1, 2 and 7, and were sown onto the surface of the soil or into the soil (depth: 1 cm) at an amount of 10 grains/pot. After the sowing, water was introduced quietly and flooded up to 1 cm. After 30 days from the sowing, a growth inhibition rate was judged according to the following judgement criteria.

[5] = system: Monochoria vaginalis; experiment: Test Example 1: pot test, herbicide-treated paddy rice seed, growth inhibition; format: in vivo; conditions: 30 days after sowing, dosage a.i. g per 1 kg of seeds: Pyrazolate 150, Compound (I) 37.5, Thenylchlor 0.63
From the text: as §1

[6] = system: Lindernia procumbens; experiment: as above; format: in vivo; conditions: 30 days after sowing, dosage a.i. g per 1 kg of seeds: Pyrazolate 150, Compound (I) 37.5, Thenylchlor 0.63
From the text: as §1

[7] = system: Monochoria vaginalis; experiment: Test Example 2: pot test, iron powder-coated herbicide-treated seed, growth inhibition; format: in vivo; conditions: surface sowing, 21 days after sowing, dosage a.i. g per 1 kg of seeds: Pyrazolate 150, Compound (I) 38, Sulcotrione 1.0, Imazosulfuron 1.0
Method: (§2) Also, paddy rice seeds (variety: Koshihikari) dipped in 20° C. of water for 2 days were dust-coated with a mixture of iron powder and calcined gypsum (a mixing ratio of 10:1) with an amount of 100 g per 1 kg of the seeds (dried unhulled rice) to prepare iron powder-coated seeds.

[8] = system: Lindernia procumbens; experiment: as above; format: in vivo; conditions: surface sowing, 21 days after sowing, dosage a.i. g per 1 kg of seeds: Pyrazolate 150, Compound (I) 38, Sulcotrione 1.0, Imazosulfuron 1.0
Method: as §2

[9] = system: Paddy rice (variety: Koshihikari); experiment: Test Example 2: pot test, iron powder-coated seed, growth inhibition of the paddy rice; format: in vivo; conditions: surface sowing, 21 days after sowing, dosage a.i. g per 1 kg of seeds: Pyrazolate 150, Compound (I) 38, Sulcotrione 1.0, Imazosulfuron 1.0
Method: as §2

[10] = system: Lindernia procumbens; experiment: Test Example 5: pot test, herbicide-treated seed, growth inhibition; format: in vivo; conditions: 20 days after sowing, dosage a.i. g per 1 kg of seeds: Sulcotrione 1.0, Imazosulfuron 1.0, Oxadiargyl 0.15
From the text: (§4) In 100 cm^2 of a pot was filled a paddy field soil, and after paddling, seeds of Lindernia procumbens and Scirpus juncoides Roxb. were sown and mixed into the surface layer of the soil. Paddy rice seeds (variety: Nipponbare) sprouted into a pigeon breast shape were dust-coated with a predetermined amount of wettable powder each prepared according to Preparation examples 3, 4 and 8, and were sown onto the surface of the soil or into the soil (depth: 1 cm) at an amount of 10 grains/pot. After the sowing, water was introduced quietly and flooded up to 1 cm. After 20 days from the sowing, a growth inhibition rate was judged according to the following judgement criteria.

[11] = system: Scirpus juncoides Roxb.; experiment: as above; format: in vivo; conditions: 20 days after sowing, dosage a.i. g per 1 kg of seeds: Sulcotrione 1.0, Imazosulfuron 1.0, Oxadiargyl 0.15
From the text: as §4

[12] = system: Scirpus juncoides Roxb.; experiment: Test Example 3: pot test, iron powder-coated herbicide-treated seed, growth inhibition; format: in vivo; conditions: surface sowing, 22 days after sowing, dosage a.i. g per 1 kg of seeds: Pyrimisulfan 0.5, Pyriminobac-methyl 1.5
Method: as §2

[13] = system: Echinochloa oryzicola; experiment: as above; format: in vivo; conditions: surface sowing, 22 days after sowing, dosage a.i. g per 1 kg of seeds: Pyrimisulfan 0.5, Pyriminobac-methyl 1.5
Method: as §2

[14] = system: Paddy rice (variety: Nipponbare); experiment: Test Example 6: pot test, growth inhibition of the paddy rice; format: in vivo; conditions: 20 days after sowing, dosage a.i. g per 1 kg of seeds: Pyrimisulfan 0.5, Pyriminobac-methyl 1.5, Butachlor 1.25
From the text: as §3

[15] = system: Paddy rice (variety: Koshihikari); experiment: Test Example 3: pot test, iron powder-coated seed, growth inhibition of the paddy rice; format: in vivo; conditions: surface sowing, 22 days after sowing, dosage a.i. g per 1 kg of seeds: Pyrimisulfan 0.5, Pyriminobac-methyl 1.5
Method: as §2

[16] = system: Monochoria vaginalis; experiment: Test Example 10: pot test, seed treated with herbicide with or without dymron, growth inhibition; format: in vivo; conditions: Surface sowing; 20 days after sowing; dosage a.i. g per 1 kg of seeds: Pyrimisulfan + Dymron 1 + 40, Pyrimisulfan 1
From the text: as §1, with “5” for “1, 2”, “11,” for “7,”, “soil” for “soil or into the soil (depth: 1 cm)”, “20” for “30”, “above-mentioned” for “following”

[17] = system: Lindernia procumbens; experiment: as above; format: in vivo; conditions: Surface sowing; 20 days after sowing; dosage a.i. g per 1 kg of seeds: Pyrimisulfan + Dymron 1 + 40, Pyrimisulfan 1
From the text: as §1, with “5” for “1, 2”, “11,” for “7,”, “soil” for “soil or into the soil (depth: 1 cm)”, “20” for “30”, “above-mentioned” for “following”

[18] = system: Paddy rice (variety: Nipponbare); experiment: Test Example 5: pot test, growth inhibition of the paddy rice; format: in vivo; conditions: 20 days after sowing, dosage a.i. g per 1 kg of seeds: Sulcotrione 1.0, Imazosulfuron 1.0, Oxadiargyl 0.15
From the text: as §4

[19] = system: paddy rice varieties Habataki, Takanari, Momiroman, Mizuhochikara, Ruriaoba and Odorokimochi; conditions: Japanese Journal of Crop Science 79 (Extra 1); cited from earlier work
[20] = Surface sowing of treated rice seed

For `CCCCOCN(C(=O)CCl)c1c(CC)cccc1CC` [Butachlor, butachlor], the “Growth inhibition rate, Scirpus juncoides Roxb.” value ([1]; Sowing into soil (depth 1 cm)) was 0 (Growth inhibition rate of 0 to 9%), the “Growth inhibition rate, Scirpus juncoides Roxb.” value ([1]; Surface sowing) was 0 (Growth inhibition rate of 0 to 9%) and the “Growth inhibition rate, Echinochloa oryzicola” value ([2]; Sowing into soil (depth 1 cm)) was 5 (Growth inhibition rate of 46 to 54%). For the same compound, the “Growth inhibition rate, Echinochloa oryzicola” value ([2]; Surface sowing) was 7 (Growth inhibition rate of 64 to 72%).
In the case of `CC1(C)CON(Cc2ccccc2Cl)C1=O` [Clomazone, clomazone], the “Growth inhibition rate, Echinochloa oryzicola” value [3] is reported as 9 (Growth inhibition rate of 82 to 90%).
With `Cc1cccc(C2CC2)c1Oc1nnc(Cl)cc1OC(=O)N1CCOCC1` [Compound (I), 6-chloro-3-(2-cyclopropyl-6-methylphenoxy)pyridazin-4-yl morpholin-4-carboxylate] the “Growth inhibition rate, Paddy rice” value ([4]; Sowing into soil (depth 1 cm)) was 5 (Growth inhibition rate of 46 to 54%), the “Growth inhibition rate, Paddy rice” value ([4]; Surface sowing) was 0 (Growth inhibition rate of 0 to 9%) and the “Growth inhibition rate, Monochoria vaginalis” value ([5]; Sowing into soil (depth 1 cm)) was 9 (Growth inhibition rate of 82 to 90%). The “Growth inhibition rate, Monochoria vaginalis” value [5, 20] was 10 (Growth inhibition rate of 91 to 100%), the “Growth inhibition rate, Lindernia procumbens” value ([6]; Sowing into soil (depth 1 cm)) was 8 (Growth inhibition rate of 73 to 81%) and the “Growth inhibition rate, Lindernia procumbens” value [6, 20] was 10 (Growth inhibition rate of 91 to 100%). The “Growth inhibition rate, Monochoria vaginalis” value [7] was 10 (Growth inhibition rate of 91 to 100%), the “Growth inhibition rate, Lindernia procumbens” value [8] was 10 (Growth inhibition rate of 91 to 100%) and the “Growth inhibition rate, Paddy rice” value [9] was 0 (Growth inhibition rate of 0 to 9%).
With `COc1cc(OC)nc(NC(=O)NS(=O)(=O)c2c(Cl)nc3ccccn23)n1` [Imazosulfuron, imazosulfuron] the “Growth inhibition rate, Lindernia procumbens” value ([10]; Sowing into soil (depth 1 cm)) was 10 (Growth inhibition rate of 91 to 100%), the “Growth inhibition rate, Lindernia procumbens” value ([10]; Surface sowing) was 10 (Growth inhibition rate of 91 to 100%) and the “Growth inhibition rate, Scirpus juncoides Roxb.” value ([11]; Sowing into soil (depth 1 cm)) was 9 (Growth inhibition rate of 82 to 90%). The “Growth inhibition rate, Scirpus juncoides Roxb.” value ([11]; Surface sowing) was 10 (Growth inhibition rate of 91 to 100%), the “Growth inhibition rate, Monochoria vaginalis” value [7] was 10 (Growth inhibition rate of 91 to 100%) and the “Growth inhibition rate, Lindernia procumbens” value [8] was 10 (Growth inhibition rate of 91 to 100%).
For `CO/N=C(/C)c1cccc(Oc2nc(OC)cc(OC)n2)c1C(=O)OC` [Pyriminobac-methyl, pyriminobac-methyl], the “Growth inhibition rate, Scirpus juncoides Roxb.” value [12] was 0 (Growth inhibition rate of 0 to 9%), the “Growth inhibition rate, Echinochloa oryzicola” value [13] was 10 (Growth inhibition rate of 91 to 100%) and the “Growth inhibition rate, Scirpus juncoides Roxb.” value ([1]; Sowing into soil (depth 1 cm)) was 0 (Growth inhibition rate of 0 to 9%). For the same compound, the “Growth inhibition rate, Scirpus juncoides Roxb.” value ([1]; Surface sowing) was 0 (Growth inhibition rate of 0 to 9%), the “Growth inhibition rate, Paddy rice” value ([14]; Sowing into soil (depth 1 cm)) was 3 (Growth inhibition rate of 28 to 36%) and the “Growth inhibition rate, Paddy rice” value ([14]; Surface sowing) was 0 (Growth inhibition rate of 0 to 9%). For the same compound, the “Growth inhibition rate, Echinochloa oryzicola” value ([2]; Sowing into soil (depth 1 cm)) was 10 (Growth inhibition rate of 91 to 100%), the “Growth inhibition rate, Echinochloa oryzicola” value ([2]; Surface sowing) was 10 (Growth inhibition rate of 91 to 100%) and the “Growth inhibition rate, Paddy rice” value [15] was 0 (Growth inhibition rate of 0 to 9%).
In the case of `COCc1cccc(C(O)c2nc(OC)cc(OC)n2)c1NS(=O)(=O)C(F)F` (stereo not shown) [Pyrimisulfan, pyrimisulfan], the “Growth inhibition rate, Scirpus juncoides Roxb.” value [12] is reported as 10 (Growth inhibition rate of 91 to 100%), the “Growth inhibition rate, Echinochloa oryzicola” value [13] is reported as 10 (Growth inhibition rate of 91 to 100%) and the “Growth inhibition rate, Scirpus juncoides Roxb.” value ([1]; Sowing into soil (depth 1 cm)) is reported as 10 (Growth inhibition rate of 91 to 100%). For the same compound, the “Growth inhibition rate, Scirpus juncoides Roxb.” value ([1]; Surface sowing) was 10 (Growth inhibition rate of 91 to 100%), the “Growth inhibition rate, Echinochloa oryzicola” value ([2]; Sowing into soil (depth 1 cm)) was 8 (Growth inhibition rate of 73 to 81%) and the “Growth inhibition rate, Echinochloa oryzicola” value ([2]; Surface sowing) was 10 (Growth inhibition rate of 91 to 100%). For the same compound, the “Growth inhibition rate, Monochoria vaginalis” value [16] was 10 (Growth inhibition rate of 91 to 100%) and the “Growth inhibition rate, Lindernia procumbens” value [17] was 10 (Growth inhibition rate of 91 to 100%).
In the case of `CS(=O)(=O)c1ccc(C(=O)C2C(=O)CCCC2=O)c(Cl)c1` [Sulcotrione, sulcotrione], the “Growth inhibition rate, Paddy rice” value ([18]; Sowing into soil (depth 1 cm)) is reported as 3 (Growth inhibition rate of 28 to 36%), the “Growth inhibition rate, Paddy rice” value ([18]; Surface sowing) is reported as 0 (Growth inhibition rate of 0 to 9%) and the “Growth inhibition rate, Lindernia procumbens” value ([10]; Sowing into soil (depth 1 cm)) is reported as 10 (Growth inhibition rate of 91 to 100%). The “Growth inhibition rate, Lindernia procumbens” value ([10]; Surface sowing) was 10 (Growth inhibition rate of 91 to 100%), the “Growth inhibition rate, Scirpus juncoides Roxb.” value ([11]; Sowing into soil (depth 1 cm)) was 8 (Growth inhibition rate of 73 to 81%) and the “Growth inhibition rate, Scirpus juncoides Roxb.” value ([11]; Surface sowing) was 9 (Growth inhibition rate of 82 to 90%). The “Growth inhibition rate, Monochoria vaginalis” value [7] was 10 (Growth inhibition rate of 91 to 100%), the “Growth inhibition rate, Lindernia procumbens” value [8] was 10 (Growth inhibition rate of 91 to 100%) and the “Growth inhibition rate, Paddy rice” value [9] was 0 (Growth inhibition rate of 0 to 9%).
For `COc1ccsc1CN(C(=O)CCl)c1c(C)cccc1C` [Thenylchlor, thenylchlor], the “Growth inhibition rate, Paddy rice” value ([4]; Sowing into soil (depth 1 cm)) was 9 (Growth inhibition rate of 82 to 90%), the “Growth inhibition rate, Paddy rice” value ([4]; Surface sowing) was 6 (Growth inhibition rate of 55 to 63%) and the “Growth inhibition rate, Monochoria vaginalis” value ([5]; Sowing into soil (depth 1 cm)) was 6 (Growth inhibition rate of 55 to 63%). The “Growth inhibition rate, Monochoria vaginalis” value [5, 20] was 7 (Growth inhibition rate of 64 to 72%), the “Growth inhibition rate, Lindernia procumbens” value ([6]; Sowing into soil (depth 1 cm)) was 8 (Growth inhibition rate of 73 to 81%) and the “Growth inhibition rate, Lindernia procumbens” value [6, 20] was 9 (Growth inhibition rate of 82 to 90%).
In the case of `CS(=O)(=O)c1ccc(C(=O)C2=C(Sc3ccccc3)C3CCC(C3)C2=O)c(Cl)c1` (stereo not shown) [benzobicyclon], the “Sensitivity of paddy rice variety to the herbicide” value [19] is listed as “show sensitivity”.
In the case of `CS(=O)(=O)c1ccc(C(=O)C2C(=O)CCCC2=O)c([N+](=O)[O-])c1` [mesotrione], the “Sensitivity of paddy rice variety to the herbicide” value [19] is listed as “show sensitivity”.
For oxadiargyl, the “Growth inhibition rate, Lindernia procumbens” value ([10]; Sowing into soil (depth 1 cm)) was 10 (Growth inhibition rate of 91 to 100%), the “Growth inhibition rate, Lindernia procumbens” value ([10]; Surface sowing) was 10 (Growth inhibition rate of 91 to 100%) and the “Growth inhibition rate, Scirpus juncoides Roxb.” value ([11]; Sowing into soil (depth 1 cm)) was 1 (Growth inhibition rate of 10 to 18%). For the same compound, the “Growth inhibition rate, Scirpus juncoides Roxb.” value ([11]; Surface sowing) was 2 (Growth inhibition rate of 19 to 27%).
